Source: the supplement of paper PMC9663587

Assays:
Assay in all cases: GRmax, 72 h; higher = less effect;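 also: breast cell lines in 384-well plates, nine doses across a 10^4 range, Dye Drop imaging of viable cells vs DMSO and time-zero plates, GR 0 means no net growth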
[1] = tested on: HCC38
[2] = tested on: 184A1
[3] = tested on: PDX1328
[4] = tested on: MCF10A
[5] = tested on: HCC1569
[6] = tested on: MDAMB436
[7] = tested on: MDAMB330
[8] = tested on: ZR7530
[9] = tested on: SUM149
[10] = tested on: CAMA1
[11] = tested on: SUM159
[12] = tested on: MDAMB468

SMILES | GRmax, 72 h [1] [GR] | GRmax, 72 h [2] [GR] | GRmax, 72 h [3] [GR] | GRmax, 72 h [4] [GR] | GRmax, 72 h [5] [GR] | GRmax, 72 h [6] [GR] | GRmax, 72 h [7] [GR] | GRmax, 72 h [8] [GR] | GRmax, 72 h [9] [GR] | GRmax, 72 h [10] [GR] | GRmax, 72 h [11] [GR] | GRmax, 72 h [12] [GR]
COc1cc2c(Oc3ccc4[nH]c(C)cc4c3F)ncnc2cc1OCCCN1CCCC1 [Cediranib/AZD2171] (max 10 µM) | -0.204 | 0.167 | -0.544 | 0.478 | 0.875 | -0.382 | -0.529 | -0.145 | 0.0682 | -0.292 | 0.518 | -0.708
Cc1cc(Nc2ncc(Cl)c(Nc3ccccc3S(=O)(=O)C(C)C)n2)c(OC(C)C)cc1C1CCNCC1 [Ceritinib/LDK378] (max 10 µM) | -0.404 | -0.728 | -0.943 | -0.319 | -0.83 | -0.697 | 0.152 | 0.416 | -0.438 | -0.699 | -0.487 | -0.742
Cc1nc(Nc2ncc(C(=O)Nc3c(C)cccc3Cl)s2)cc(N2CCN(CCO)CC2)n1 [Dasatinib] (max 10 µM) | 0.332 | 0.192 | -0.401 | -0.0146 | -0.059 | 0.653 | 0.556 | -0.0607 | -0.172 | 0.679 | 0.732 | 0.339
COc1cccc2c1C(=O)c1c(O)c3c(c(O)c1C2=O)C[C@@](O)(C(=O)CO)C[C@@H]3O[C@H]1C[C@H](N)[C@H](O)[C@H](C)O1 [Doxorubicin] (max 3.162 µM) | -0.406 | 0.028 | -0.739 | -0.324 | -0.132 | -0.129 | -0.205 | -0.274 | -0.321 | -0.652 | -0.361 | -0.339
CO[C@H]1C[C@@H]2CC[C@@H](C)[C@@](O)(O2)C(=O)C(=O)N2CCCC[C@H]2C(=O)O[C@H]([C@H](C)C[C@@H]2CC[C@@H](OCCO)[C@H](OC)C2)CC(=O)[C@H](C)/C=C(\C)[C@@H](O)[C@@H](OC)C(=O)[C@H](C)C[C@H](C)/C=C/C=C/C=C/1C [Everolimus] (max 10 µM) | 0.473 | 0.501 | 0.371 | 0.789 | 0.555 | 0.615 | -0.378 | 0.169 | 0.737 | 0.164 | 0.866 | 0.527
CCC(=O)Nc1ccc(C(=O)Nc2ccc(Nc3ncc4c(n3)N(C)c3ccc(C)cc3C(=O)N4C)cc2)cc1 [FMF-03-145-1] | -0.376 | -0.0063 | 0.128 | -0.0249 | -0.125 | -0.189 | -0.0541 | -0.0468 | -0.101 | 0.0253 | -0.12 | -0.46
COc1cc(N2CCN(C)CC2)ccc1Nc1ncc2c(n1)N(C)c1ccccc1C(=O)N2CC(F)(F)F [FMF-03-146-1] | 0.9 | 1.04 | 0.893 | 0.99 | 1.03 | 0.89 | 0.866 | 0.937 | 0.971 | 0.82 | 0.898 | 0.706
CN1CC[C@H](c2c(O)cc(O)c3c(=O)cc(-c4ccccc4Cl)oc23)[C@H](O)C1 [Flavopiridol] (max 1 µM) | -0.448 | -0.329 | -0.0976 | -0.67 | -0.177 | -0.0264 | -0.892 | -0.662 | -0.605 | -0.13 | -0.051 | -0.351
CC(C)n1nc(-c2ccc3oc(N)nc3c2)c2c(N)ncnc21 [INK128/MLN0128] (max 3.162 µM) | -0.0087 | 0.139 | -0.159 | 0.172 | 0.088 | 0.211 | -0.77 | -0.109 | 0.268 | -0.0962 | 0.214 | 0.0572
CC(C)NC[C@@H](C(=O)N1CCN(c2ncnc3c2[C@H](C)C[C@H]3O)CC1)c1ccc(Cl)cc1 [Ipatasertib/GDC0068] (max 10 µM) | 0.706 | 0.631 | 0.704 | 0.647 | 0.234 | 0.611 | -0.657 | 0.438 | 0.291 | -0.236 | 0.591 | 0.309
CN(C)C(=O)c1cc2cnc(Nc3ccc(N4CCNCC4)cn3)nc2n1C1CCCC1 [LEE011/Ribociclib] (max 10 µM) | 0.241 | 0.11 | 0.265 | 0.434 | 0.897 | 0.951 | 0.157 | 0.41 | 0.605 | 0.122 | 0.436 | 0.947
CCNC(=O)c1noc(-c2cc(C(C)C)c(O)cc2O)c1-c1ccc(CN2CCOCC2)cc1 [Luminespib/NVP-AUY922] (max 1 µM) | -0.209 | 0.0336 | -0.253 | -0.172 | -0.0081 | -0.0492 | -0.344 | 0.1 | -0.392 | -0.0698 | -0.0637 | -0.174
CCOc1cc2ncc(C#N)c(Nc3ccc(OCc4ccccn4)c(Cl)c3)c2cc1NC(=O)/C=C/CN(C)C [Neratinib/HKI272] (max 3.162 µM) | 0.457 | 0.162 | -0.0735 | 0.0959 | 0.117 | 0.0162 | -0.655 | -0.532 | 0.155 | 0.449 | 0.51 | -0.383
O=C(c1cc(Cc2n[nH]c(=O)c3ccccc23)ccc1F)N1CCN(C(=O)C2CC2)CC1 [Olaparib/AZD2281] (max 10 µM) | 0.425 | 0.563 | 0.631 | 0.794 | 0.565 | 0.238 | 0.46 | 0.653 | 0.205 | 0.679 | 0.76 | 0.341
CC(=O)O[C@H]1C(=O)[C@@]2(C)[C@H]([C@H](OC(=O)c3ccccc3)[C@]3(O)C[C@H](OC(=O)[C@H](O)[C@@H](NC(=O)c4ccccc4)c4ccccc4)C(C)=C1C3(C)C)[C@]1(OC(C)=O)CO[C@@H]1C[C@@H]2O [Paclitaxel] (max 1 µM) | -0.308 | -0.268 | -0.403 | -0.126 | 0.0183 | -0.218 | -0.438 | -0.597 | -0.257 | -0.494 | -0.201 | -0.522
CS(=O)(=O)N1CCN(Cc2cc3nc(-c4cccc5[nH]ncc45)nc(N4CCOCC4)c3s2)CC1 [Pictilisib/GDC0941] (max 10 µM) | 0.357 | 0.0537 | -0.167 | 0.193 | -0.054 | 0.285 | -0.817 | -0.342 | 0.341 | -0.237 | 0.2 | -0.0613
O=C1NC(=NCc2cccs2)SC1=Cc1ccc2ncccc2c1 [R0-3306] (max 10 µM) | -0.239 | -0.142 | 0.399 | -0.0081 | -0.166 | 0.0289 | -0.159 | 0.065 | -0.171 | 0.0254 | 0.101 | -0.271
CNCc1ccc(-c2[nH]c3cc(F)cc4c3c2CCNC4=O)cc1 [Rucaparib] (max 10 µM) | 0.652 | 0.748 | 0.634 | 0.874 | 0.75 | 0.222 | 0.423 | 0.674 | 0.559 | 0.789 | 0.799 | 0.345
CC1(N)CCN(c2cnc(-c3cccc(Cl)c3Cl)c(N)n2)CC1 [SHP099] (max 10 µM) | 0.523 | 0.279 | 0.58 | 0.571 | 0.92 | 0.941 | 0.444 | 0.715 | 0.866 | 0.779 | 0.821 | 0.567
CN1CCN(CCOc2cc(OC3CCOCC3)c3c(Nc4c(Cl)ccc5c4OCO5)ncnc3c2)CC1 [Saracatinib/AZD0530] (max 10 µM) | 0.614 | 0.24 | -0.108 | 0.148 | 0.161 | 0.724 | 0.0209 | -0.159 | 0.188 | 0.774 | 0.723 | 0.178
Cc1cc(C(C)Nc2ccccc2)c2nc(N3CCOCC3)cc(=O)n2c1 (stereo not drawn) [TGX221] (max 10 µM) | 0.952 | 1 | 0.778 | 0.951 | 0.774 | 0.722 | 0.858 | 0.925 | 1.02 | 0.85 | 1.02 | 0.723
CN(C)C/C=C/C(=O)Nc1ccc(C(=O)Nc2cccc(Nc3ncc(Cl)c(-c4c[nH]c5ccccc45)n3)c2)cc1 [THZ1] (max 1 µM) | -0.568 | -0.232 | -0.171 | -0.525 | -0.325 | -0.0798 | -0.945 | -0.638 | -0.52 | -0.486 | -0.122 | -0.377
CN(C)C/C=C/C(=O)Nc1ccc(C(=O)N2CCC[C@@H](Nc3ncc(Cl)c(-c4c[nH]c5ccccc45)n3)C2)cc1 [THZ531] (max 1 µM) | -0.337 | -0.377 | -0.184 | -0.625 | -0.155 | 0.018 | -0.968 | -0.732 | -0.509 | -0.398 | 0.627 | -0.153
CN(C)C/C=C/C(=O)Nc1ccc(C(=O)Nc2cccc(Nc3cc(-c4c[nH]c5ccccc45)ncn3)c2)cc1 [THZ-P1-2] (max 10 µM) | -0.509 | -0.344 | 0.656 | -0.181 | -0.359 | -0.278 | -0.777 | -0.964 | -0.589 | -0.626 | -0.394 | -0.523
